Measured values reported in patent publication US8178506B2, “Oligomeric compounds and compositions for use in modulation of small non-coding RNAs” (Regulus Therapeutics Inc., priority 2003, dated 2012).
In the oligonucleotide strings, read from the 5' end, every base follows the letter of its sugar. An asterisk marks phosphorothioate; unmarked linkages are phosphodiester. Other units and linkages are bracketed, terminal groups are in braces. A string of capitals states the bases alone. e = 2'-O-(2-methoxyethyl) (MOE); [5mC] = 5-methylcytosine; d = 2'-deoxy (DNA)

How the values were obtained:
[1] = tested on: T47Dp53 cells; experiment: Cell cycle assay in T47Dp53 cells; format: cell-based, human; details: 150 nM, 48 hours, relative to untreated control
[2] = tested on: B16-F10 cells; experiment: Cell cycle assay in B16-F10 cells; format: cell-based, mouse; details: 150 nM, 48 hours, relative to untreated control
[3] = tested on: mir-143 miRNA binding site; experiment: GFP mir-143 sensor reporter in T-REx-HeLa cells; format: cell-based, human; details: T-REx-HeLa, 24 hours post-transfection
Source text: Reporter systems have been developed herein to assess the ability of miRNA mimics to provoke a gene silencing response and to assess whether antisense oligomeric compounds targeting miRNAs can inhibit gene silencing activity. The T-REx™-HeLa cell line (Invitrogen Corp., Carlsbad, Calif.) was used for either stable or transient transfections with plasmids constitutively expressing miRNAs, pre-miRNAs, pri-miRNAs or mimics thereof, and, in some cases, antisense oligomeric compounds targeting the expressed miRNA were also transfected into the cells. It is understood that other mammalian cells lines can also be used in this reporter system. T-REx™-HeLa cells were routinely cultured in DMEM, high glucose (Invitrogen Corporation, Carlsbad, Calif.), supplemented with 10% fetal bovine serum (Invitrogen Corporation). […] Cells were harvested when they reached 90% confluence, and on the day before transfection with expression or reporter plasmids (described in detail below), the T-REx™-HeLa cells were seeded onto 24-well plates at 50,000 cells/well. The following day, cells were transfected according to standard published procedures with various combinations of plasmids using 2 μg Lipofectamine™ 2000 Reagent (Invitrogen) per μg of plasmid DNA. When transfecting oligomeric compounds, 1-3 μg of Lipofectamine™ 2000 Reagent was used per 100 nM oligomeric compound.
Plasmids used are as follows: The pcDNA3.1©/NT-GFP (Invitrogen) plasmid, containing a CMV promoter controlling expression of a GFP reporter sequence at the N-terminus of the transcription start site was used as a control plasmid. The pcDNA3.1©/NT-GFP-mir-143 sensor plasmid contains (in addition to the elements above) three 22-nucleotide sites encoding the mir-143 miRNA binding site, downstream of the GFP coding sequence and upstream of the polyadenylation signal. The pCR3-pri-mir-143 plasmid (“pri-mir-143”) is a CMV promoter-driven constitutive expression plasmid which expresses the 110-nucleotide mir-143 pri-miRNA sequence (SEQ ID NO: 38), to act as a mir-143 pri-miRNA mimic. The pCR3-pri-mir control (“pri-mir-control”) is a CMV promotor-driven constitutive expression plasmid which is designed to express a similar 110-nucleotide pri-miRNA sequence ([…] CAGC; SEQ ID NO: 862) wherein the mature mir-143 sequence has been replaced with an unrelated sequence and the predicted complementary strand opposite it within the pri-miRNA structure is replaced with a nearly complementary sequence in order to preserve the stem loop as well as the bulge structure of the natural mir-143 pri-miRNA. Additionally, in order to test the effect of an oligomeric compound targeting a miRNA, the T-REx™-HeLa cells were also transfected with the uniform 2′-MOE phosphorothioate (PS) antisense oligomeric compound ISIS Number 327901 (SEQ ID NO: 319), targeted to mir-143 previously described.
Twenty-four hours post-transfection, cells were trypsinized and GFP fluorescence was analyzed by flow cytometry.

Substance	% cells in cell cycle phase G1 [1] [%]	% cells in cell cycle phase G2/M [1] [%]	% cells in cell cycle phase S [1] [%]	% cells in cell cycle phase aneuploid [1] [%]	% cells in cell cycle phase subG1 [1] [%]	% cells in cell cycle phase G1 [2] [%]	% cells in cell cycle phase G2/M [2] [%]	% cells in cell cycle phase S [2] [%]	% cells in cell cycle phase aneuploid [2] [%]	% cells in cell cycle phase subG1 [2] [%]	expression of GFP from the pcDNA3.1/NT-GFP-mir-143 sensor plasmid [3]
328403 (antisense eA*eG*eG*e[5mC]*e[5mC]*dT*dA*dT*dT*d[5mC]*d[5mC]*dT*dG*dT*dA*eG*e[5mC]*eA*eA*eA) [compound 328403]	114	94	87	89	140	111	99	88	92	112	
ds-mir-143: double-stranded RNA of ISIS 342199 hybridized to its perfect complement ISIS 342200 (sense UGAGAUGAAGCACUGUAGCUCA; antisense UGAGCUACAGUGCUUCAUCUCA; RNA, backbone not given here)											inhibited expression of GFP from the sensor plasmid in a dose dependent manner
